Assay results reported in US8586551B2, “18-membered macrocycles and analogs thereof” (Optimer Pharmaceuticals, Inc., priority 2005, dated 2013).

What was measured:
[1] = test system: C. difficile clinical isolates; assay: MIC via agar dilution versus 110 clinical isolates of C. difficile; format: cell-based; conditions: 110 clinical isolates
C. difficile = assay: Post-antibiotic effect (PAE) in C. difficile; format: cell-based; conditions: at 4× the MIC, clinical isolate LC3
Description: The term “PAE” or “post-antibiotic effect” refers to a well-established pharmacodynamic parameter that reflects the persistent suppression of bacterial growth following antibiotic exposure.
Vancomycin and rifampin were tested additionally versus LC3.
Because of the long duration of this effect, an exact PAE was not calculated.

SMILES | MIC range [1] | PAE (C. difficile)
Cc1ncc([N+](=O)[O-])n1CCO [Metronidazole, reference compound] | 0.025 to 0.5 µg/mL | –
CN[C@H](CC(C)C)C(=O)N[C@H]1C(=O)N[C@@H](CC(N)=O)C(=O)N[C@H]2C(=O)N[C@H]3C(=O)N[C@H](C(=O)N[C@H](C(=O)O)c4cc(O)cc(O)c4-c4cc3ccc4O)[C@H](O)c3ccc(c(Cl)c3)Oc3cc2cc(c3O[C@@H]2O[C@H](CO)[C@@H](O)[C@H](O)[C@H]2O[C@H]2C[C@](C)(N)[C@H](O)[C@H](C)O2)Oc2ccc(cc2Cl)[C@H]1O [Vancomycin, reference compound] | 0.06 to 4 µg/mL | less than an hour
